The text below walks through data of patent US10858367B2, “Compounds” (GLAXOSMITHKLINE INTELLECTUAL PROPERTY DEVELOPMENT LIMITED, priority 2017, dated 2020).

The target in this experiment is T1, LRRK2 Ser935 phosphorylation in SH-SY5Y cells over-expressing recombinant full length LRRK2 (Homo sapiens, UniProt Q5S007).
T1 construct: A BacMam virus expressing full length recombinant LRRK2 was purchased from Invitrogen; host or cells: SH-SY5Y human neuroblastoma cells transduced with BacMam LRRK2 virus
T1 sequence (Q5S007 whole entry): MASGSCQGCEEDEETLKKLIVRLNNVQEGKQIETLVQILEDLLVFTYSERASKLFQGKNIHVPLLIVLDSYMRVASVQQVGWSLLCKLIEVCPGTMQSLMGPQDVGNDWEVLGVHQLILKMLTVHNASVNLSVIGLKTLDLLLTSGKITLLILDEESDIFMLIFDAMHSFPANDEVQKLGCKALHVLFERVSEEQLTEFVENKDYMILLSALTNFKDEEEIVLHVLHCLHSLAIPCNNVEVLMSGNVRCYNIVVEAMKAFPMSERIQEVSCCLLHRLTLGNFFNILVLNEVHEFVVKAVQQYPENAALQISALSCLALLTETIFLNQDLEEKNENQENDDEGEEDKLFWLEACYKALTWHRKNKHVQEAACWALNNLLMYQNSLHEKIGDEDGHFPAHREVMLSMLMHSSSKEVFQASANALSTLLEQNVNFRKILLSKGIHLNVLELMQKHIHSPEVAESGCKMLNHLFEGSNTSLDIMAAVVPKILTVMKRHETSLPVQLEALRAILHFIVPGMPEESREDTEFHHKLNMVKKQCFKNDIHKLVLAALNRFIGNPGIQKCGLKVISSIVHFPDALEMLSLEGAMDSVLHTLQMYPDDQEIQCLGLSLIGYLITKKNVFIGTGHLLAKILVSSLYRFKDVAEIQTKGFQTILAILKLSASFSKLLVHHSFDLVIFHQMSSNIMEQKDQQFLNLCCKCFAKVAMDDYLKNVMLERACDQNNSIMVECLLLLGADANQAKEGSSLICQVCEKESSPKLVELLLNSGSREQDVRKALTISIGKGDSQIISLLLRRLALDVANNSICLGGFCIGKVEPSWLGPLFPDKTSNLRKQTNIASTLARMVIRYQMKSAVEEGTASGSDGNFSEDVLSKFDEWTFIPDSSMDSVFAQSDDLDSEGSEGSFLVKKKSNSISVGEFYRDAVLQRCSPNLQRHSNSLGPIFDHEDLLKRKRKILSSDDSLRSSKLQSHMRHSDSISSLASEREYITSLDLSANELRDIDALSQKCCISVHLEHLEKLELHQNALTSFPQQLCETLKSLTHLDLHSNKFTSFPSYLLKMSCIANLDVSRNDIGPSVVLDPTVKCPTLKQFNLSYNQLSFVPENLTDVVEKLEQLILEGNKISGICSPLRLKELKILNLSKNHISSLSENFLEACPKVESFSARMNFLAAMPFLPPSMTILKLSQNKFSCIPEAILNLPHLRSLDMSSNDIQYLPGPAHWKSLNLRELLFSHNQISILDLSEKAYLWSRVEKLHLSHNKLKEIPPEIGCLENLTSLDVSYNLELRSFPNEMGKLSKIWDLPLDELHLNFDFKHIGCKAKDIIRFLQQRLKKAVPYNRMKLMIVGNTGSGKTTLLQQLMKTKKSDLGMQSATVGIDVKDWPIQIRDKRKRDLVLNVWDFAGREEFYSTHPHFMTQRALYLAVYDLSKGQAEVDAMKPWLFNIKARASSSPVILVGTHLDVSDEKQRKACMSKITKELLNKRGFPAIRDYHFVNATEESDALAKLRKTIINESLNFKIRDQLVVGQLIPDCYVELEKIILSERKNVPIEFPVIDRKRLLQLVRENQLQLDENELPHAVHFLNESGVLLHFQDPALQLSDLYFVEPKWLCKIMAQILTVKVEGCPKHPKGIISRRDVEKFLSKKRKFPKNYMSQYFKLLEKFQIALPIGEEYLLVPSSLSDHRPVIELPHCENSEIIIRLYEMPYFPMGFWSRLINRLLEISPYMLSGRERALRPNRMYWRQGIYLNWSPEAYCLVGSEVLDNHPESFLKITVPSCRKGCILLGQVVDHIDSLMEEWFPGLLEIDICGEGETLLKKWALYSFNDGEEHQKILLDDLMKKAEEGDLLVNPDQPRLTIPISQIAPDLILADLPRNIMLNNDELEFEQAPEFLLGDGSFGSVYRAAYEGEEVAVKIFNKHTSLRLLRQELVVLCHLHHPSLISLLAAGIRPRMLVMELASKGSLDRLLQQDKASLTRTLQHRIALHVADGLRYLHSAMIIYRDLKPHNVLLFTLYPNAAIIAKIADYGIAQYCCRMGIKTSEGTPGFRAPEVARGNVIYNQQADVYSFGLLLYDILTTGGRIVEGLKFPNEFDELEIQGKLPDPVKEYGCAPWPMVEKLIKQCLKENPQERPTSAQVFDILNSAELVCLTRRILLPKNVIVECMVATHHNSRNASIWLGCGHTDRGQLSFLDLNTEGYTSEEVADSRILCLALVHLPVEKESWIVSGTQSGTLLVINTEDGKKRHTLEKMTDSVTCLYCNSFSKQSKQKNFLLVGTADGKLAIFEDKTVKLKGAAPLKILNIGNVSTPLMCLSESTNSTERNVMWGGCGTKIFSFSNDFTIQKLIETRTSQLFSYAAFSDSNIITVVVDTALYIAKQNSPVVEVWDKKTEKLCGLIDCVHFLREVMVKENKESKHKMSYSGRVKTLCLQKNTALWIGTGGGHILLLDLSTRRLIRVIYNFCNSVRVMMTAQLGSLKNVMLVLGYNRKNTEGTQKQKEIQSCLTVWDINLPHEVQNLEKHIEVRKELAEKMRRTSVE
Description: Recombinant cellular LRRK2 AlphaScreen assay. In kind it is cell-based. The settings on record: human neuroblastoma SH-SY5Y cells, BacMam full length LRRK2, 60 minutes with compound, read-out: pIC50 in the recombinant cellular LRRK2 AlphaScreen assay (converted). An excerpt:
b. Recombinant Cellular LRRK2 AlphaScreen Assay
To determine the activity of compounds against LRRK2 kinase activity in cells, the observed LRRK2 kinase-dependent modulation of LRRK2 Ser 935 phosphorylation (Dzamko et al., 2010, Biochem. J. 430: 405-413) was utilized to develop a quantitative 384 well plate-based immunoassay of LRRK2 Ser935 phosphorylation in the human neuroblastoma cell line SH-SY5Y, engineered to over-express recombinant full length LRRK2 protein.
A BacMam virus expressing full length recombinant LRRK2 was purchased from Invitrogen and amplified by inoculation of SF-9 cells at MOI 0.3 for 4-5 days in Sf-900 III SFM medium supplemented with 3% fetal bovine serum. Infected cell cultures were then centrifuged at 2000 g for 20 minutes, viral supernatant titer determined by anti-gp64 plaque assay and stored at 4° C.
Affinity-purified anti-phospho LRRK2 Ser935 sheep polyclonal antibody (Dzamko et al., 2010, Biochem. J. 430: 405-413) was biotinylated by standard methods (PerkinElmer). Anti-LRRK2 rabbit polyclonal antibody was purchased from Novus Biologicals. AlphaScreen Protein A IgG Kit (including acceptor and donor beads) was purchased from Perkin Elmer.
SH-SY5Y cells were grown in DMEM/F12 medium with 10% dialysed fetal bovine serum and harvested by treatment with 0.5% trypsin-EDTA for 5 minutes at 37° C. followed by centrifugation at 1000 rpm for 4 minutes. The cell pellet was resuspended in Opti-MEM reduced serum media (Invitrogen) at 200,000 cells/ml and mixed with the BacMam LRRK2 virus at MOI=50. 50 μl cell solutions were then dispensed to each well of a 384-well plate and incubated at 37° C., 5% CO2 for 24 hours.
Serial dilutions of test compounds were prepared in Opti-MEM reduced serum media (Invitrogen) and 5.6 ul transferred from compound plate to cell assay plate to achieve a top final assay concentration of 10 uM. DMSO was used in certain wells as controls. Cells were incubated at 37° C., 5% CO2 for 60 minutes. The medium was then removed and cells lysed by addition of 20 ul cell lysis buffer (Cell Signaling Technology) and incubation at 4° C. for 20 minutes. 10 ul of antibody/acceptor bead mix [(1/1000 biotinylated-pS935 LRRK2 antibody, 1/1000 total-LRRK2 antibody, 1/100 Acceptor beads in AlphaScreen detection buffer (25 mM Hepes (pH 7.4), 0.5% Triton X-100, 1 mg/ml Dextran 500 and 0.1% BSA)] was then added to each well and plates incubated for 2 hours at ambient temperature in the dark. 10 μl of donor beads solution (1/33.3 donor beads in AlphaScreen detection buffer) was then added to each well. Following incubation for a further 2 hours at ambient temperature in the dark, plates were read on an EnVision™ plate reader at emission 520-620 nm with excitation 680 nm. Dose response curve data was based on sigmoidal dose-response model.
On the technique in general: In Alpha technology, singlet oxygen from a donor bead excites a nearby acceptor bead.
On to `Cc1nc(N2C[C@H]3C[C@@H]2CO3)cc(-n2ncc3cc(Cl)c(N4CCC(C)(O)CC4)cc32)n1` [Example E34, 1-(1-(6-((1R,4R)-2-oxa-5-azabicyclo[2.2.1]heptan-5-yl)-2-methylpyrimidin-4-yl)-5-chloro-1H-indazol-6-yl)-4-methylpiperidin-4-ol], for which the IC50 is at most 1000 nM.
In the case of `COCCN1CCC(c2cc3c(cnn3-c3cc(N4C[C@H]5C[C@@H]4CO5)nc(OC)n3)cc2C)CC1` [Example E35, (1R,4R)-5-(2-methoxy-6-(6-(1-(2-methoxyethyl)piperidin-4-yl)-5-methyl-1H-indazol-1-yl)pyrimidin-4-yl)-2-oxa-5-azabicyclo[2.2.1]heptane] it was at most 1000 nM; in that of `COCCN1CCC(c2cc3c(cnn3-c3cc(N4C[C@@H]5C[C@H]4CO5)nc(OC)n3)cc2C)CC1` [Example E36, (1S,4S)-5-(2-methoxy-6-(6-(1-(2-methoxyethyl)piperidin-4-yl)-5-methyl-1H-indazol-1-yl)pyrimidin-4-yl)-2-oxa-5-azabicyclo[2.2.1]heptane], at most 1000 nM.
In the case of `COc1nc(N2C[C@H]3C[C@@H]2CO3)cc(-n2ncc3cc(C)c(C4CCN(CCF)CC4)cc32)n1` [Example E37, (1R,4R)-5-(6-(6-(1-(2-fluoroethyl)piperidin-4-yl)-5-methyl-1H-indazol-1-yl)-2-methoxypyrimidin-4-yl)-2-oxa-5-azabicyclo[2.2.1]heptane] it was at most 1000 nM.
In the case of `COc1nc(N2C[C@@H]3C[C@H]2CO3)cc(-n2ncc3cc(C)c(C4CCN(CCF)CC4)cc32)n1` [Example E38, (1S,4S)-5-(6-(6-(1-(2-fluoroethyl)piperidin-4-yl)-5-methyl-1H-indazol-1-yl)-2-methoxypyrimidin-4-yl)-2-oxa-5-azabicyclo[2.2.1]heptane] it was at most 1000 nM; in that of `Cc1nc(N2C[C@H]3C[C@@H]2CO3)cc(-n2ncc3cc(C)c(C4CCN(C5COC5)CC4)cc32)n1` [Example E39, (1R,4R)-5-(2-methyl-6-(5-methyl-6-(1-(oxetan-3-yl)piperidin-4-yl)-1H-indazol-1-yl)pyrimidin-4-yl)-2-oxa-5-azabicyclo[2.2.1]heptane], at most 1000 nM.
With `Cc1nc(N2C[C@@H]3C[C@H]2CO3)cc(-n2ncc3cc(C)c(C4CCN(C5COC5)CC4)cc32)n1` [Example E40, (1S,4S)-5-(2-methyl-6-(5-methyl-6-(1-(oxetan-3-yl)piperidin-4-yl)-1H-indazol-1-yl)pyrimidin-4-yl)-2-oxa-5-azabicyclo[2.2.1]heptane], the IC50 is at most 1000 nM.
To `COc1nc(N2CC3CCC(C2)O3)cc(-n2ncc3cc(C)c(C4CCN(C5COC5)CC4)cc32)n1` [Example E41, 3-(2-Methoxy-6-(5-methyl-6-(1-(oxetan-3-yl)piperidin-4-yl)-1H-indazol-1-yl)pyrimidin-4-yl)-8-oxa-3-azabicyclo[3.2.1]octane] belongs at most 1000 nM; to `Cc1nc(N2CC3CCC(C2)O3)cc(-n2ncc3cc(C)c(C4CCN(C5COC5)CC4)cc32)n1` [Example E42, 3-(2-Methyl-6-(5-methyl-6-(1-(oxetan-3-yl)piperidin-4-yl)-1H-indazol-1-yl)pyrimidin-4-yl)-8-oxa-3-azabicyclo[3.2.1]octane], at most 1000 nM.
In the case of `COc1nc(N2CC3CC(C2)O3)cc(-n2ncc3cc(C)c(C4CCN(C5COC5)CC4)cc32)n1` [Example E43, 3-(2-Methoxy-6-(5-methyl-6-(1-(oxetan-3-yl)piperidin-4-yl)-1H-indazol-1-yl)pyrimidin-4-yl)-6-oxa-3-azabicyclo[3.1.1]heptane] it was at most 1000 nM; in that of `Cc1nc(N2CC3CC(C2)O3)cc(-n2ncc3cc(C)c(C4CCN(C5COC5)CC4)cc32)n1` [Example E44, 3-(2-Methyl-6-(5-methyl-6-(1-(oxetan-3-yl)piperidin-4-yl)-1H-indazol-1-yl)pyrimidin-4-yl)-6-oxa-3-azabicyclo[3.1.1]heptane], at most 1000 nM.
`Cc1nc(N2C3CCC2COC3)cc(-n2ncc3cc(C)c(C4CCN(C5COC5)CC4)cc32)n1` [Example E45, 8-(2-methyl-6-(5-methyl-6-(1-(oxetan-3-yl)piperidin-4-yl)-1H-indazol-1-yl)pyrimidin-4-yl)-3-oxa-8-azabicyclo[3.2.1]octane]: the IC50 is at most 1000 nM.
Regarding `Cc1nc(N2C3COCC2COC3)cc(-n2ncc3cc(C)c(C4CCN(C5COC5)CC4)cc32)n1` [Example E46, 9-(2-methyl-6-(5-methyl-6-(1-(oxetan-3-yl)piperidin-4-yl)-1H-indazol-1-yl)pyrimidin-4-yl)-3,7-dioxa-9-azabicyclo[3.3.1]nonane], the IC50 was at most 1000 nM.
In the case of `Cc1nc(N2C[C@H]3C[C@@H]2CO3)cc(-n2ncc3cc(C)c(C4CCN(CCO)CC4)cc32)n1` [Example E51, 2-(4-(1-(6-((1R,4R)-2-oxa-5-azabicyclo[2.2.1]heptan-5-yl)-2-methylpyrimidin-4-yl)-5-methyl-1H-indazol-6-yl)piperidin-1-yl)ethanol] it was at most 1000 nM; in that of `Cc1nc(N2C[C@@H]3C[C@H]2CO3)cc(-n2ncc3cc(C)c(C4CCN(CCO)CC4)cc32)n1` [Example E52, 2-(4-(1-(6-((1S,4S)-2-oxa-5-azabicyclo[2.2.1]heptan-5-yl)-2-methylpyrimidin-4-yl)-5-methyl-1H-indazol-6-yl)piperidin-1-yl)ethanol], at most 1000 nM; in that of `Cc1nc(N2C[C@H]3C[C@@H]2CO3)cc(-n2ncc3cc(C)c(C4CCN(C(=O)CO)CC4)cc32)n1` [Example E53, 1-(4-(1-(6-((1R,4R)-2-oxa-5-azabicyclo[2.2.1]heptan-5-yl)-2-methylpyrimidin-4-yl)-5-methyl-1H-indazol-6-yl)piperidin-1-yl)-2-hydroxyethanone], at most 1000 nM.
In the case of `Cc1nc(N2C[C@@H]3C[C@H]2CO3)cc(-n2ncc3cc(C)c(C4CCN(C(=O)CO)CC4)cc32)n1` [Example E54, 1-(4-(1-(6-((1S,4S)-2-oxa-5-azabicyclo[2.2.1]heptan-5-yl)-2-methylpyrimidin-4-yl)-5-methyl-1H-indazol-6-yl)piperidin-1-yl)-2-hydroxyethanone] it was at most 1000 nM; in that of `Cc1nc(N2C[C@H]3C[C@@H]2CO3)cc(-n2ncc3cc(C)c(C4CCN(C5COC5)CC4C)cc32)n1` (stereo partly drawn) [Example E55, (1R,4R)-5-(2-methyl-6-(5-methyl-6-(3-methyl-1-(oxetan-3-yl)piperidin-4-yl)-1H-indazol-1-yl)pyrimidin-4-yl)-2-oxa-5-azabicyclo[2.2.1]heptane], at most 1000 nM.
As for `[2H]C1(N2CCC(c3cc4c(cnn4-c4cc(N5C[C@H]6C[C@@H]5CO6)nc(OC)n4)cc3C)CC2)COC1` [Example E56, (1R,4R)-5-(6-(6-(1-(3-deuterooxetan-3-yl)piperidin-4-yl)-5-methyl-1H-indazol-1-yl)-2-methoxypyrimidin-4-yl)-2-oxa-5-azabicyclo[2.2.1]heptane], the IC50 is at most 10 nM.
In the case of `[2H]C1(N2CCC(c3cc4c(cnn4-c4cc(N5C[C@@H]6C[C@H]5CO6)nc(OC)n4)cc3C)CC2)COC1` [Example E57, (1S,4S)-5-(6-(6-(1-(3-deuterooxetan-3-yl)piperidin-4-yl)-5-methyl-1H-indazol-1-yl)-2-methoxypyrimidin-4-yl)-2-oxa-5-azabicyclo[2.2.1]heptane] it was at most 1000 nM; in that of `COc1nc(N2C[C@H]3C[C@@H]2CO3)cc(-n2ncc3cc(C)c(C4CCNCC4)cc32)n1` [Example E58, (1R,4R)-5-(2-methoxy-6-(5-methyl-6-(piperidin-4-yl)-1H-indazol-1-yl)pyrimidin-4-yl)-2-oxa-5-azabicyclo[2.2.1]heptane], at most 1000 nM; in that of `COc1nc(N2C[C@@H]3C[C@H]2CO3)cc(-n2ncc3cc(C)c(C4CCNCC4)cc32)n1` [Example E59, (1S,4S)-5-(2-methoxy-6-(5-methyl-6-(piperidin-4-yl)-1H-indazol-1-yl)pyrimidin-4-yl)-2-oxa-5-azabicyclo[2.2.1]heptane], at most 1000 nM.
